# Tests used:
# [1] = Acute toxicity (oral, mice, 72 hours); safety margin; assay type: in vivo; settings: mouse, in vivo, mice, oral; for selectivity ratio: po; for LD50 at 72 h: died 72 hours after dosing, read-out: Side effect: Acute toxicity LD50 (E)
# Protocol: (§1) (E) :A drug was administered orally to mice. The 50 % lethal dose
# (§2) (LD50) of the drug was estimated from the number of mice which died
# (§3) 72 hours after the dosing.
# (§4) Therapeutic index and Safety margin: Said index and margin were calculate
# [2] = Hypnotic activity, loss of righting reflex (oral, mice); therapeutic index; assay type: in vivo; settings: mouse, in vivo, mice, oral; for selectivity ratio: po; for TD50: loss of righting reflex for more than 20 seconds in 50 % of the mice, read-out: Side effect: Hypnotic activity HD50 (D)
# Protocol: (§5) (D) :A drug was administered orally to mice. The hypnotic activity of the
# (§6) drug was determined by the number of mice which lost righting reflex for
# (§7) more than 20 seconds. HD50 of the drug was estimated as the dose
# (§8) which was required to produce the losing of righting reflex in 50 % of th
# as §4
# mice [3] = assay: Muscle relaxing activity, inclined plate method (oral, mice); assay type: in vivo; settings: Mus musculus, 15, 30 and 45 minutes after dosing, read-out: Muscle relaxing activity ED50 (B)
# Protocol: (§9) (B) :Activity examined by the inclined plate method. A drug was
# (§10) administered orally to mice. After 15, 30 and 45 minutes of the dosing,
# (§11) the mice were put on the center of a canvas (60 cm in length and 50 cm in
# (§12) width) having been set up with an inclination of 60 degrees. ED50 of
# (§13) the drug was estimated from the number of mice which slipped down from th
# (§14) canvas within one minute.
# mice [4] = assay: Muscle relaxing activity, rotating rod method (oral, mice); assay type: in vivo; settings: Mus musculus, 0.5 h, 30 minutes after dosing, read-out: Muscle relaxing activity ED50 (C)
# Protocol: (§15) (C) :Activity examined by the rotating rod method. A drug was administere
# (§16) orally to mice. After 30 minutes of the dosing, the mice were placed for
# (§17) minutes on rotating rods (3.5 cm in diameter, 14 rpm.). ED50 of the
# (§18) drug was estimated from the number of mice which fell out of the rods
# [5] = test system: cardiazol-induced convulsive death in mice; assay: Anti-cardiazol activity, protection from cardiazol-induced convulsive death; assay type: in vivo; settings: for ED50: Mus musculus, oral, 125 mg of cardiazol s.c. 30 minutes after dosing, protection at 60 minutes
# Protocol: (§19) The quinazolinone derivative [I] of the present invention has potent tranquilizing, anti-convulsive and analgesic activities. […] On the other hand, when examined under the same condition as above, 200 mg of Mefenamic acid[Chemical name: N-(2,3-xylyl)anthranilic acid] are required to produce 25 % decrease in said carageenin-induced edema.
# Anti-cardiazol activity. A drug was administered orally to mice. After 30
# minutes of the dosing, 125 mg of cardiazol were injected subcutaneously t
# the mice. ED50 of the drug was estimated from the number of mice
# which were protected from cardiazol-induced convulsive death 60 minutes
# after injection of cardiazol.
# mice [6] = assay: Muscle relaxing activity, traction method (oral, mice); assay type: in vivo; settings: Mus musculus, 10, 20 and 30 minutes after dosing
# Protocol: (§20) (A) :Activity examined by the traction method. A drug was administered
# (§21) orally to mice. After 10, 20 and 30 minutes of the dosing, the mice were
# (§22) suspended by the forepaws to a metallic wire of 1 mm in diameter.
# (§23) ED50 of the drug was estimated from the number of mice which fell ou
# (§24) of the wire within 10 seconds.
# [7] = Japanese patent application No. 81910/1971; cited from earlier work
# [8] = test system: acetic acid-induced writhings; assay: Analgesic activity, acetic acid-writhing method; assay type: in vivo, mice; settings: for ED50: Mus musculus, oral, mice, 1 % acetic acid i.p., 50 % reduction in writhings
# Protocol: as §19
# Analgesic activity. One % acetic acid solution was injected
# intraperitoneally to mice at the dose of […] after oral
# administration of a drug, and the number of writhings per mouse was
# counted for 5 minutes starting at 10 minutes after injection of acetic
# acid. ED50 of the drug was estimated as the dose which would produce
# 50 % reduction in acetic acid-induced writhings.
# mice [9] = assay: Central muscle relaxing activity (Table 1, traction, inclined plate and rotating rod methods together); settings: mouse, in vivo
# Protocol: as §20, §21, §22, §23, §24, §9, §10, §11, §12, §13, §14, §15, §16, §17, §18
# [10] = Arzneimittel Forshung 21(1971), 238-243; U.S. Pat. No. 3317388; cited from earlier work
# mice [11] = assay: Hypnotic activity, loss of righting reflex (oral, mice); therapeutic index; assay type: in vivo; settings: for hypnotic activity (side effect), in words: mouse, in vivo
# Protocol: as §5, §6, §7, §8, §4
# carageenin-induced edema = assay: Anti-inflammatory activity, carageenin-induced edema; assay type: in vivo, rats
# Protocol: as §19
# Anti-inflammatory activity. A drug was administered orally to rats at the
# dose of 30 mg/kg. To the control group was administered orally a
# physiological saline solution. After one hour, one % carageenin solution
# was injected subcutaneously to the rats through planta of hind legs at th
# dose of 0.5 ml/rat. Then, the volume of the hind legs in the control and
# medicated groups were measured at 3 hours after injection of carageenin,
# and the preventive effect (%) of the drug against carageenin-induced edem
# was calculated therefrom.
# [12] = Tranquilizing activity (no method given); settings: in vivo
# mice [13] = assay: Acute toxicity (oral, mice, 72 hours); safety margin; assay type: in vivo; settings: vs 2-methyl-3-(o-tolyl)-6-amino-4(3H)-quinazolinone; ratio of muscle relaxing activity to acute toxicity
# Protocol: as §1, §2, §3, §4
# [14] = LD50 / ED50 inclined plate method, read-out: Safety margin E/B
# [15] = LD50 / ED50 rotating rod method, read-out: Safety margin E/C
# [16] = LD50 / ED50 traction method, read-out: Safety margin E/A
# [17] = HD50 / ED50 inclined plate method, read-out: Therapeutic index D/B
# [18] = HD50 / ED50 rotating rod method, read-out: Therapeutic index D/C
# [19] = HD50 / ED50 traction method, read-out: Therapeutic index D/A
Structure (SMILES),"selectivity ratio [1, 14]","selectivity ratio [1, 15]","selectivity ratio [1, 16]",LD50 at 72 h [1] [mg/kg],"selectivity ratio [2, 17]","selectivity ratio [2, 18]","selectivity ratio [2, 19]",TD50 [2] [mg/kg],ED50 (mice [3]) [mg/kg],ED50 (mice [4]) [mg/kg],ED50 ([5]; mice) [mg/kg],ED50 (mice [6]) [mg/kg],ED50 [8] [mg/kg],"hypnotic activity (side effect), in words (mice [11])",also measured
Cc1ccccc1-n1c(CF)nc2ccccc2c1=O [2-fluoromethyl-3-(o-tolyl)-4(3H)-quinazolinone],12.1,10.5,5.1,710,1.48,1.29,0.63,87.3,58.9,67.5,56.1,138,42.1,–,"hypnotic use, in words (Inoue et al) [7]: useful as hypnotic agents"
Cc1ccccc1-n1c(CF)nc2ccc([N+](=O)[O-])cc2c1=O [2-fluoromethyl-3-(o-tolyl)-6-nitro-4(3H)-quinazolinone],–,–,–,–,–,–,–,> 100,> 100,> 100,–,> 100,–,–,"hypnotic use, in words (Inoue et al) [7]: useful as hypnotic agents"
Cc1ccccc1-n1c(C)nc2ccc(N)cc2c1=O [2-methyl-3-(o-tolyl)-6-amino-4(3H)-quinazolinone],–,–,–,–,–,–,–,33.7,22.5,22.5,16.9,24,10,–,"muscle relaxing activity, in words (mice [9]): relatively strong muscle relaxing activity; muscle relaxing activity, in words (Breuer et al) [10]: shows a muscle relaxing activity"
"CN1C(=O)CCS(=O)(=O)C1c1ccc(Cl)cc1 (stereo not drawn) [Chlormezanone, 2-(p-chlorophenyl)tetrahydro-3-methyl-4H-1,3-thiazin-4-one 1,1-dioxide]",8.6,6.1,6.5,1340,2.47,1.74,1.86,386,156,222,28.8,208,258,potent hypnotic activity,–
"Cc1cccc(Nc2ccccc2C(=O)O)c1C [Mefenamic acid, N-(2,3-xylyl)anthranilic acid]",–,–,–,–,–,–,–,–,–,–,–,–,–,–,"decrease in carageenin-induced edema (carageenin-induced edema; 200 mg of Mefenamic acid required, same condition (oral, rats)): 25%"
"Cc1ccccc1OCC(O)CO (stereo not drawn) [Mephenesin, 3-(o-tolyloxy)-1,2-propanediol]",3.7,4.1,3.8,2020,1.5,1.66,1.56,824,551,498,600,527,–,potent hypnotic activity,–
"Cc1ccccc1-n1c(CF)nc2ccc(N)cc2c1=O [quinazolinone derivative [I], 2-fluoromethyl-3-(o-tolyl)-6-amino-4(3H)-quinazolinone]",27.4,23.6,25.5,528,2.75,2.37,2.57,53.1,19.3,22.4,15.7,20.7,11.8,relatively less hypnotic activity,"tranquilizing activity, in words [12]: potent; safety margin, times superior to 2-methyl-3-(o-tolyl)-6-amino-4(3H)-quinazolinone (mice [13]): about 7 times; therapeutic index, times superior to Chlormezanone (mice [11]; vs Chlormezanone, ratio of muscle relaxing to hypnotic activity): about 2 times; therapeutic index, times superior to Mephenesin (mice [11]; vs Mephenesin, ratio of muscle relaxing to hypnotic activity): about 2 times; Anti-inflammatory activity: preventive effect (%) against carageenin-induced edema (carageenin-induced edema; oral, rats, 30 mg/kg, 3 hours after carageenin): 28%; anti-inflammatory activity, in words (carageenin-induced edema; rat, in vivo): potent anti-inflammatory activity; anti-convulsive activity, in words ([5]; mouse, in vivo): potent; anti-cardiazol activity, times superior to 2-fluoromethyl-3-(o-tolyl)-4(3H)-quinazolinone ([5]; vs 2-fluoromethyl-3-(o-tolyl)-4(3H)-quinazolinone, mice): 3.6 times; anti-cardiazol activity, times superior to 2-methyl-3-(o-tolyl)-6-amino-4(3H)-quinazolinone ([5]; vs 2-methyl-3-(o-tolyl)-6-amino-4(3H)-quinazolinone, mice): 1.1 times; anti-cardiazol activity (ED50), times superior to Chlormezanone ([5]; vs Chlormezanone, mice): about 2 times; analgesic activity (ED50) compared with Chlormezanone ([8]; acetic acid-writhing method, in words): apparently stronger than that of Chlormezanone; analgesic activity, in words ([8]; mouse, in vivo): potent"

# Reference: patent US3966731A, “2-Fluoromethyl-3-o-tolyl-6-amino-4(3H)-quinazolinone” (Tanabe Seiyaku Co., Ltd., priority 1973, dated 1976)
